Data reported in ChEMBL document CHEMBL1157539, “Thousands of chemical starting points for antimalarial lead identification” (Nature, 2010).

system: Plasmodium falciparum; test: GSK_TCMDC: Inhibition of Plasmodium falciparum 3D7 in whole erythrocytes, using parasite LDH activity as an index of growth.; format: functional, organism-based; conditions: Plasmodium falciparum, 3D7

Point of comparison: `Cc1nc(-c2nc(N3CCC(O)CC3)ncc2-c2ccsc2)sc1C`, XC50 939 nM. Against it:
- Oc1cc(NCCCNC2CCc3c(Cl)cc(Cl)cc32)nc2ccccc12 (stereo not given) — within 1.5-fold, 934 nM
- CCN1CCC(N(Cc2ccc(-c3ccc(C(F)(F)F)cc3)cc2)C(=O)Cn2c(CCc3cccc(F)c3F)cc(=O)c3c2CCC3)CC1 — within 1.5-fold, 972 nM
- Cc1cc(N[C@@H](CC(C)C)C(=O)NCc2cccs2)nc(NCCc2ccccc2)n1 — within 1.5-fold, 1190 nM
- C=CCn1c(Sc2ccc(C#N)c([N+](=O)[O-])c2)nnc1-c1cccc(Cl)c1 — 3.1-fold lower, 301 nM
- N=C(N)c1ccc2[nH]c(-c3cc4cc(C(=N)N)ccc4o3)cc2c1 — 5.2-fold lower, 179 nM
- Cc1cc(N[C@@H](CC(C)C)C(=O)NCCc2ccccc2)nc(Nc2ccccc2)n1 — within 1.5-fold, 816 nM
- Cc1cc(O)nc(NC(=N)NOCc2ccccc2)n1 — 2.2-fold lower, 423 nM
- CN1CCCN(c2ccnc3cc4c(cc23)N(C(=O)c2ccc(Cl)cc2)CC4)CC1 — within 1.5-fold, 791 nM
- COc1ccccc1CCN1CCC(CN(C)Cc2ccc(O)c(Cl)c2)CC1 — 2.8-fold lower, 335 nM
- CC(C)(C)c1ccc2nccc(Nc3cccc(O)c3)c2c1 — within 1.5-fold, 973 nM
- CN1CCC[C@H]1COc1ccc(CN2CC[C@H](NC(=O)c3ccc(Cl)c(Cl)c3)C2)c2ccccc12 — within 1.5-fold, 946 nM
- Cc1noc(C)c1-c1cccc(CNCc2ccc(-c3cccc(-c4nc5ccccc5[nH]4)c3)cc2)c1 — 1.7-fold lower, 569 nM
- COc1ccc(O)c(C(=O)c2cnc3c(c2)c(-c2ccc(F)cc2)c(C#N)c(=O)n3C)c1 — within 1.5-fold, 792 nM
- FC(F)(F)c1cnc(Sc2nnc(-c3ccco3)o2)c(Cl)c1 — within 1.5-fold, 791 nM
- CCC(CSC1CCCCC1)N(C)CCN(C)C(CC)CSC1CCCCC1 (stereo not given) — 3-fold lower, 314 nM
- O=C(NCCc1ccccc1)N(Cc1ccccc1-c1cccc(CNCc2ccc3c(c2)OCO3)c1)C1CCN(Cc2ccccc2)CC1 — within 1.5-fold, 987 nM
- CCOC(=O)c1ccc2[nH]c(-c3ccc(C(=O)NC4CCN(Cc5ccccc5)CC4)s3)nc2c1 — within 1.5-fold, 745 nM
- Cc1cc(-c2ccc(CNC3Cc4ccccc4C3)cc2)ccc1S(=O)(=O)NCCN1CCCC1 — within 1.5-fold, 704 nM
- Cc1cc(=NN=Cc2cccc(F)c2)c2cc(F)ccc2[nH]1 — 2-fold lower, 478 nM
- O=C(NCCc1ccccc1F)c1cc(Br)cc(N2CCN(c3ccncc3)CC2)c1 — within 1.5-fold, 756 nM
- CN(C)c1ccc(CN2CCC(NC(=O)c3ccc(-c4cccc(C(F)(F)F)c4)s3)CC2)cc1 — within 1.5-fold, 1150 nM
- Clc1ccc(-n2cnc3c(Nc4ccc(Oc5ccccc5)cc4)ncnc32)cc1Cl — within 1.5-fold, 747 nM
- CCCCCCN1CCN(Cc2cccc(NC(=O)c3ccc(Cl)c(Cl)c3)c2)CC1 — 1.5-fold lower, 610 nM
- COc1cc2c(cc1OC)CN(CCc1ccc(NC(=O)c3cc4cc(OC(F)(F)F)ccc4[nH]3)cc1)CC2 — 1.8-fold lower, 535 nM
- CN1CCC(NCc2cccc(-c3ccc(S(=O)(=O)NCCc4ccccn4)cc3)c2)CC1 — within 1.5-fold, 827 nM
- Cc1cc(N(C)C2CCN(CC3CCCCC3)C2)nc(Nc2ccc(Cl)cc2)n1 (stereo not given) — within 1.5-fold, 679 nM
- CCOC(=O)c1cc2c(CCN3C(=O)c4ccccc4C3=O)cn(C)c2cc1-c1ccncc1 — 1.6-fold lower, 583 nM
- CC(C)CNCc1cccc(-c2ccc(CN(C(=O)c3cccs3)C3CCN(Cc4ccccc4)CC3)cc2)c1 — within 1.5-fold, 1010 nM
- Cc1cc2c(cc1C(F)(F)F)N(C(=O)Nc1cc(C(=O)NCCN(C)C)cc(C(F)(F)F)c1)CC2 — within 1.5-fold, 730 nM
- CC1CN(c2ncc(-c3ccc(CNC4Cc5ccccc5C4)cc3)cn2)CC(C)N1 (stereo not given) — within 1.5-fold, 1160 nM
- COc1ccc(CNC2CCN(C)CC2)cc1-c1ccc(S(=O)(=O)NCCc2ccccn2)c(F)c1 — within 1.5-fold, 819 nM
- COc1ccc(S(=O)(=O)Nc2ccc(C(=O)NCc3ccc(C(F)(F)F)cc3)cc2)cc1N1CCN(CC2CC2)CC1 — within 1.5-fold, 1120 nM
- c1cc2[nH]c(CCc3nc4cc(C5=NC6CCCCC6N5)ccc4[nH]3)nc2cc1C1=NC2CCCCC2N1 (stereo not given) — 4.1-fold lower, 230 nM
- Cc1cccc2nc(-c3ccc(-c4cccc(CN5CCN(CCO)CC5)c4)cc3)[nH]c12 — within 1.5-fold, 730 nM
- O=C1CSc2ccc(CNC3CCN(CCc4c(F)cnc5ccc(F)cc45)CC3)nc2N1 — 1.8-fold lower, 525 nM
- CCOC(=O)c1c(-c2ccccc2)nc2c(sc3ccccc32)c1O — 2.5-fold lower, 375 nM
- Oc1ccc(-c2cc(COc3ccccc3C(F)(F)F)c(C3=CCNCC3)cc2COc2ccccc2C(F)(F)F)cc1 — within 1.5-fold, 775 nM
- Cc1cnc(NCC2CCCCC2)nc1N[C@@H](CO)C(=O)Nc1ccccc1 — within 1.5-fold, 1100 nM
- CN1CCC(N(Cc2ccc(-c3cnc(NCc4ccccc4)nc3)cc2)S(=O)(=O)c2ccccc2)CC1 — within 1.5-fold, 777 nM
- Cc1cc(=O)oc2c1ccc1oc(C(O)c3ccc(Cl)cc3)c(C)c12 (stereo not given) — 7.2-fold lower, 130 nM
- O=C(Nc1ccon1)c1cc(-c2cccnc2)nc2ccc(Cl)cc12 — within 1.5-fold, 786 nM
- Cc1noc(C)c1-c1cccc(CNCc2cccc(-c3cccc(-c4nc5cc(C(F)(F)F)ccc5[nH]4)c3)c2)c1 — 2.1-fold lower, 456 nM
- Cc1cccc(CNc2nc(C)cc(NCCC(=O)NCc3cccc(F)c3)n2)c1 — within 1.5-fold, 850 nM
- Cc1cc(C(=O)Nc2ccc(OCc3ccccc3)cc2)on1 — within 1.5-fold, 991 nM
- Cn1nc(-c2ccc(NC(=O)Nc3cc(C(F)(F)F)cc(C(F)(F)F)c3)c(F)c2)c2cnc(NCCN3CCOCC3)nc21 — within 1.5-fold, 801 nM
- CC(C)C(NC(=O)Cc1cccc2ccccc12)C(=O)Nc1cccc(C#N)c1 (stereo not given) — within 1.5-fold, 656 nM
- O=S(=O)(c1ccccc1)n1ccc2cc(Nc3ncnc4cc(C#C[C@H]5CCCN5)sc34)ccc21 — within 1.5-fold, 1070 nM
- CCN(CC)CCOc1ccc(C(O)(C#CC(O)(c2ccc(Br)cc2)c2ccc(OCCN(CC)CC)cc2)c2ccc(Br)cc2)cc1 (stereo not given) — 1.5-fold lower, 616 nM
- COc1cc(NC(=O)c2sc(-c3ccc(Cl)cc3)cc2NC(=O)c2cccnc2)ccc1OCCN1CCCC1 — 2.5-fold lower, 380 nM
- CCCC(C)n1ccc2c3c(N)nc(N)nc3ccc21 (stereo not given) — 20-fold lower, 47.6 nM
- COc1ccc2c(NN=Cc3ccccn3)ccnc2c1 — 2.5-fold lower, 374 nM
- C[C@H](Nc1c(Nc2ccc3[nH]ccc3c2)c(=O)c1=O)C1CCCCC1 — 4.4-fold lower, 213 nM
- CC(=O)c1ccc(Nc2c(C(N)=O)cnc3cc(-c4c(C)noc4C)ccc23)cc1 — 4.8-fold lower, 195 nM
- COc1ccc(Br)cc1/C=C/C(=O)Nc1ccc(C2CCCN(C)C2)cc1 (stereo not given) — within 1.5-fold, 633 nM
- CC(=O)NCCCCC1NC2(C(=O)N(Cc3ccc(C(C)(C)C)cc3)c3ccccc32)C2C(=O)N(C3CCCCC3)C(=O)C12 (stereo not given) — within 1.5-fold, 788 nM
- Cc1ccc2c(c1)C1(CC(=O)N(CCc3scnc3C)C1=O)C(=O)N2Cc1ccccc1 (stereo not given) — within 1.5-fold, 1250 nM
- ON=C1CCc2cc(-c3nc(-c4ccc(OCCN5CCCCC5)cc4)[nH]c3-c3ccncc3)ccc21 — within 1.5-fold, 804 nM
- O=C(Nc1ccccc1Cl)c1cc2ccccc2cc1O — within 1.5-fold, 1010 nM
- Cc1ccc2c(c1[N+](=O)[O-])N=NCC2Oc1ccccc1 (stereo not given) — within 1.5-fold, 868 nM
- CC1(C)NC(N)=NC(=N)N1OCOc1ccc(Cl)cc1 — 200-fold lower, 4.6 nM
- CCCCSc1ccc2nc(-c3c[nH]c4ccc(C#N)cc34)cn2c1 — within 1.5-fold, 948 nM
- CCc1ccc(-n2c(=O)c3cccnc3n2CC(=O)NC2CCCC2)cc1 — within 1.5-fold, 917 nM
- CCC1CCc2cc(N)cc(-c3nc4c(c(C)nn4CC)c(=O)[nH]3)c2O1 (stereo not given) — within 1.5-fold, 1120 nM
- CC(C)(C)Nc1nc(Nc2cccc([N+](=O)[O-])c2)nc(-n2ccnc2)n1 — within 1.5-fold, 811 nM
- Cc1cccc2nc(-c3cccc(-c4ccc(NC(=O)C(C)CN5CCN(C)CC5)cc4)c3)[nH]c12 (stereo not given) — 5.4-fold lower, 175 nM
- Oc1c(CN2CCC(Cc3ccccc3)CC2)cc(Cl)c2cccnc12 — within 1.5-fold, 881 nM
- CCC(C)NC(=O)Nc1ccc(-c2cccc(-c3nc4ccccc4[nH]3)c2)cc1 (stereo not given) — within 1.5-fold, 821 nM
- N=C(N)c1ccc(Nc2nc(Nc3ccc(-c4ccccc4)cc3)ncc2[N+](=O)[O-])cc1 — within 1.5-fold, 804 nM
- Cc1nc(-c2ccc(-c3ccc(C(=O)Nc4ccc(-n5ccnc5)c(N5CCN(C)CC5)c4)cc3)c(C)c2)no1 — within 1.5-fold, 834 nM
